According to patent US7179825B2, “Retinoic acid mimetic anilides” (Janssen Pharmaceutica N.V., priority 1997, dated 2007):
pIC50: −log10 of the molar value.

Tests used:
Ovariectomized rats = assay: Vaginal keratinization test on ovariectomized rats (Example C.2); assay type: in vivo; conditions: estradiol undecylate induced keratinization, per os once daily on days 1-3, active dose = 50% of rats show complete suppression
Method in brief: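 Ovariectomized rats given s.c. estradiol undecylate (100 μg per 100 g body weight in sesame oil), then oral compound once daily on days 1-3 (vehicle PEG 200). Vaginas assessed histologically one day after last dose; lowest active dose (mg/kg) is the dose giving complete keratinization suppression in 50% of rats.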

[1] = tested on: metabolism of retinoic acid in human breast cancer cells; assay: Inhibition of retinoic acid (RA) metabolism (Example C.1); assay type: cell-based; conditions: MCF-7 human breast cancer cells, 3H-RA as substrate, concentration needed to reduce the amount of metabolites to 50% of the control
From the text: The property to delay the metabolism of retinoic acid can be evidenced in various in vitro and in vivo experiments. A particular in vitro procedure is described in example C.1 and tests the inhibitory activity of the compounds of formula (I) on the metabolism of retinoic acid in human breast cancer cells. The compounds of the present invention were also effective in suppressing induced vaginal keratinization effects in ovariectomized rats as is described in example C.2.
Inhibition of Retinoic Acid (RA) Metabolism
MCF-7 human breast cancer cells were grown as stock cultures according to art-known protocols. One day before the experiment, RA is added to the stock cultures to stimulate RA-metabolism. At the start of the experiment, cell suspensions were incubated in a tissue culture medium containing ^3H-RA as the substrate. Different concentrations of the test compound (dissolved in 1% DMSO) were added to the incubation mixtures, and at the end of the incubation, the unmetabolized RA is separated from its polar metabolites. The fraction containing the polar ^3H-labelled metabolites was collected and counted in a scintillation counter. For each experiment, a control and a blank incubation were run in parallel. Table 22 list the IC50 value (defined as the concentration in M needed to reduce the amount of metabolites to 50% of the control).

Row | SMILES | LAD (lowest active dose) (Ovariectomized rats) [mg/kg] | pIC50 [1] | pIC50 ([1]; MCF7)
1 | CCC(CC)C(c1ccc(NC(=O)C(O)c2ccc(C)c(C)c2)cc1)n1cncn1 (mixture of isomers) [Compound 11] | >2.50 | 8.58 | –
2 | CCC(CC)C(c1ccc(NC(=O)C2COc3ccccc3O2)cc1)n1ccnc1 (mixture of isomers) [Compound 23] | 2.50 | 9.30 | –
3 | CCC(CC)C(c1ccc(NC(=O)CC2COc3ccccc3O2)cc1)n1ccnc1 (mixture of isomers) [Compound 26] | 5.00 | 9.70 | –
4 | CCC(CC)C(c1ccc(NC(=O)C2COc3ccccc3C2)cc1)n1ccnc1 (mixture of isomers) [Compound 33] | 5.00 | 9.00 | –
5 | CC(C=Cc1ccccc1)C(=O)Nc1ccc(C(C(C)C)n2ccnc2)cc1 (mixture of isomers) [Compound 165] | >20.00 | 7.97 | –
6 | CC(C(=O)Nc1ccc(C(C(C)C)n2ccnc2)cc1)=C(c1ccccc1)c1cccnc1 (mixture of isomers) [Compound 171] | >10.00 | 7.07 | –
7 | CC1C(C(=O)Nc2ccc(C(C(C)C)n3ccnc3)cc2)=Cc2ccccc21 (mixture of isomers) [Compound 180] | >10.00 | 7.24 | –
8 | CC(C)C(c1ccc(NC(=O)C2CC2C)cc1)n1ccnc1 (mixture of isomers) [Compound 197] | >10.00 | 8.25 | –
9 | CC(C)C(c1ccc(NC(=O)C2CC2c2ccccc2)cc1)n1ccnc1.O=C(O)C(=O)O (mixture of isomers) [Compound 204] | >10.00 | 8.34 | –
10 | CC(C)C(c1ccc(NC(=O)C2COc3ccccc3C2)cc1)n1ccnc1 (mixture of isomers) [Compound 253] | >5.00 | 8.26 | –
11 | CC(CC#N)C(c1ccc(NC(=O)Cc2ccc(Cl)cc2)cc1)n1ccnc1 (mixture of isomers) [Compound 371] | 10.00 | 8.44 | –
12 | CCC(C)C(c1ccc(NC(=O)C(C)=Cc2ccccc2)cc1)n1ccnc1 (mixture of isomers) [Compound 480] | 10.00 | 8.37 | –
13 | CCCCC(CC)C(c1ccc(NC(=O)C(C)=Cc2ccccc2)cc1)n1ccnc1 (mixture of isomers) [Compound 493] | >2.50 | 8.06 | –
14 | O=C(C=C(c1ccccc1)C1CCCCC1)Nc1ccc(C(c2ccc(Cl)cc2)n2ccnc2)cc1 (mixture of isomers) [Compound 514] | >20.00 | < 6.00 | –
15 | CC(C)C(=CC(=O)Nc1ccc(C(c2ccc(Cl)cc2)n2ccnc2)cc1)c1ccccc1 (mixture of isomers) [Compound 515] | >20.00 | < 6.00 | –
16 | CC(C(=O)Nc1ccc(C(C(C)C)n2ccnc2)cc1)=C(c1ccccc1)c1ccsc1 (mixture of isomers) [Compound 518] | >10.00 | < 7.00 | –
17 | CCCC(=C(C)C(=O)Nc1ccc(C(C(C)C)n2ccnc2)cc1)c1ccccc1 (mixture of isomers) [Compound 519] | >10.00 | 8.42 | –
18 | CCC(C)C(c1ccc(NC(=O)Cc2ccc(OC)c(OC)c2)cc1)n1cncn1 (mixture of isomers) [Compound 640] | >2.50 | 8.66 | –
19 | CC(C)C(c1ccc(NC(=O)C(c2ccccc2)C2CCCC2)cc1)n1ccnc1 (mixture of isomers) [Compound 659] | >10.00 | < 7.00 | –
20 | CCC(C(=O)Nc1ccc(C(C(C)C)n2ccnc2)cc1)c1ccccc1 (mixture of isomers) [Compound 660] | >10.00 | 8.20 | –
21 | CC(C)C(c1ccc(NC(=O)C(c2ccccc2)C2CCCCC2)cc1)n1ccnc1 (mixture of isomers) [Compound 661] | >10.00 | 7.47 | –
22 | COC(C(=O)Nc1ccc(C(C(C)C)n2ccnc2)cc1)c1ccccc1 (mixture of isomers) [Compound 670] | >2.50 | 8.24 | –
23 | CCC(CC)C(c1ccc(NC(=O)/C(C)=C/c2ccccc2)cc1)n1cncn1 (racemic) [Compound 2] | 5.00 | 10.52 | –
24 | Cc1cnc(C(=O)Nc2ccc(C(C(C)C)n3ccnc3)cc2)cn1 (racemic) [Compound 225] | – | 7.08 | –
25 | Cc1ccoc1C(=O)Nc1ccc(C(C(C)C)n2ccnc2)cc1 (racemic) [Compound 226] | – | 7.77 | –
26 | C/C(=C\c1ccccc1)C(=O)Nc1ccc(C(c2ccc3c(c2)C(C)(C)CCC3(C)C)n2ccnc2)cc1 (racemic) [Compound 491] | – | 8.74 | –

Row | SMILES | LAD (lowest active dose) (Ovariectomized rats) [mg/kg] | pIC50 [1] | pIC50 ([1]; MCF7)
27 | O=C(C=C(c1ccccc1)c1cccnc1)Nc1ccc(C(c2ccc(Cl)cc2)n2ccnc2)cc1 (racemic) [Compound 516] | – | < 6.00 | –
28 | O=C(C=C(c1ccccc1)c1cccnc1)Nc1ccc(C(c2ccc(F)cc2)n2ccnc2)cc1 (racemic) [Compound 517] | – | 7.43 | –
29 | O=C(/C=C/c1ccccc1)Nc1ccc(C(c2cccc(C(F)(F)F)c2)n2cncn2)cc1 (racemic) [Compound 617] | – | 6.82 | –
30 | CC(C)C(c1ccncc1)c1ccc(NC(=O)Cc2ccc(Cl)cc2)cc1 (racemic) [Compound 685] | – | 7.04 | –
31 | CC(C)C(c1ccc(NC(=O)Cc2ccc(Cl)cc2)cc1)c1ccccn1 (racemic) [Compound 687] | – | < 7.00 | –
32 | CC(C)C(c1ccc(NC(N)=S)cc1)n1ccnc1 (racemic) [Compound 699, (±)-4-[1-(1H-imidazol-1-yl)-2-methylpropyl]phenylthiourea] | – | – | 8.01
33 | O=C(Nc1ccc(C(c2ccc(Cl)cc2)n2ccnc2)cc1)Nc1cccc(F)c1 (racemic) [Compound 731] | – | < 7.00 | –
34 | CCC(c1ccc(NC(=O)Cc2ccc(Cl)cc2)cc1)(C(C)C)n1ccnc1 (racemic) [Compound 755] | – | 8.36 | –
35 | CC(C)C(c1ccc(NC(=O)Cc2ccc(N)cc2)cc1)n1ccnc1 (single isomer, unassigned) [Compound 147] | – | 7.48 | –
36 | CC(C)C(c1ccc(NC(=O)Cc2ccc(N=[N+]=[N-])c(I)c2)cc1)n1ccnc1 (single isomer, unassigned) [Compound 260] | – | 8.61 | –
37 | CC(C(c1ccc(NC(=O)Cc2ccc(O)c(Cl)c2)cc1)n1ccnc1)N(C)C (single isomer, unassigned) [Compound 303] | – | 8.49 | –
38 | COc1ccc(CC(=O)Nc2ccc(C(C(C)N(C)C)n3ccnc3)cc2)cc1Cl (single isomer, unassigned) [Compound 305] | – | 10.08 | –
39 | COc1ccc(CCCC(=O)Nc2ccc(C(C(C)N(C)C)n3ccnc3)cc2)cc1OC (single isomer, unassigned) [Compound 336] | – | 8.72 | –
40 | CCC(C(c1ccc(NC(=O)Cc2ccc(OC)c(OC)c2)cc1)n1ccnc1)N(C)C (single isomer, unassigned) [Compound 388] | – | 9.08 | –
41 | CCCCCC(C)C(c1ccc(NC(=O)/C(C)=C/c2ccccc2)cc1)n1ccnc1 (single isomer, unassigned) [Compound 488] | – | < 7.00 | –
42 | CCC(CC)C(c1ccc(NC(C)=O)cc1)n1cncn1 (centres unmarked) [Compound 1] | – | 9.86 | –
43 | CCC(CC)C(c1ccc(NC(=O)C(O)c2ccc(Cl)cc2)cc1)n1ccnc1 (centres unmarked) [Compound 54] | – | 8.31 | –
44 | CC(C)C(c1ccc(NC(=O)Cc2ccc(N)cc2)cc1)n1ccnc1 (centres unmarked) [Compound 145, (A)-4-amino-N-[4-[1-(1H-imidazol-1-yl)-2-methylpropyl]phenyl]benzeneacetamide] | – | 8.52 | –
45 | CC(C)C(c1ccc(NC(=O)Cc2ccc(N=[N+]=[N-])c(I)c2)cc1)n1ccnc1 (centres unmarked) [Compound 259, (B)-4-azido-N-[4-[1-(1H-imidazol-1-yl)-2-methylpropyl]phenyl]-3-iodobenzenacetamide] | – | 8.03 | –
46 | CC(=O)Nc1ccc(C(c2cccc(F)c2)n2cncn2)cc1 (centres unmarked) [Compound 616] | – | < 6.00 | –
47 | C/C(=C\c1ccccc1)C(=O)Nc1ccc(C(c2cccc(F)c2)n2cncn2)cc1 (centres unmarked) [Compound 620] | – | < 6.00 | –
48 | CC(C)C(c1ccc(NC(=O)Nc2cccc(F)c2)cc1)c1ccccn1 (centres unmarked) [Compound 691] | – | < 7.00 | –
49 | CC(C)C(c1ccc(NC(=N)Nc2cccc(F)c2)cc1)n1ccnc1 (centres unmarked) [Compound 744, N′-(3-fluorophenyl)-N-[4-[1-(1H-imidazol-1-yl)-2-methylpropyl]phenyl]guanidine] | – | – | < 7.00
50 | CCC(CC)C(c1ccc(NC(=O)Cc2cccc(O)c2)cc1)n1ccnc1 (centres unmarked) [Compound 780, (A)-N-[4-[2-ethyl-1-(1H-imidazol-1-yl)butyl]phenyl]-3-hydroxybenzeneacetamide ethanedioate (1:1)] | – | 8.34 | –
51 | CCC(CC)C(c1ccc(NC(=O)Cc2cccc(O)c2)cc1)n1ccnc1 (centres unmarked) [Compound 781, (B)-N-[4-[2-ethyl-1-(1H-imidazol-1-yl)butyl]phenyl]-3-hydroxy-benzeneacetamide ethanedioate (1:1)] | – | 8.49 | –
